Measurements: article PMC4358806 (European Journal of Medicinal Chemistry, 2013)
Where two headings read alike, the source gives them in different places.

Key:
tumor cell lines = assay: Cytostatic activity, ranges over several tumor cell lines; assay type: cell-based
Feline herpes virus = assay: organism not typed; assay type: cell-based; conditions: read-out: EC50 Feline herpes virus
[1] = test system: HEL and CrFK cell cultures; assay: Cytotoxicity; assay type: cell-based
carboxypeptidase Y = biological target: T1, carboxypeptidase Y (Saccharomyces cerevisiae, UniProt P00729); assay: Carboxypeptidase Y-mediated cleavage monitored by 31P NMR; assay type: in vitro ADME; conditions: d6-acetone and Trizma buffer pH 7.6, room temperature
T1 sequence (P00729 112-532): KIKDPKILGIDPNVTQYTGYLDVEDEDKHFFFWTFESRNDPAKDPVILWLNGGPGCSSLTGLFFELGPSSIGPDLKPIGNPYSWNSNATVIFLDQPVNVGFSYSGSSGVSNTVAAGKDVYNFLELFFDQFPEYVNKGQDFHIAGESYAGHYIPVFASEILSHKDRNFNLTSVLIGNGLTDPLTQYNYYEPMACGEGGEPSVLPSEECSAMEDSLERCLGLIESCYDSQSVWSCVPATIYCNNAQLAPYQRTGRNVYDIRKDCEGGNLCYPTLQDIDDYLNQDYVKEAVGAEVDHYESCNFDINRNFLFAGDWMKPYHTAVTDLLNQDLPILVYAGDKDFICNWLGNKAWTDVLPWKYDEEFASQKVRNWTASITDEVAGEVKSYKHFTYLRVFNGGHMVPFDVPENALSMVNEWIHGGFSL

HIV-1 (X4LAI.04) = assay: microbe, parasite or virus in culture; assay type: cell-based
[2] = Cytotoxicity in HCV replicon assay, Huh 7 cells; assay type: cell-based; conditions: human, Huh 7 cells (HCV replicon type 1b)
Huh 7 cells = conditions: cited from earlier work
HCV replicon (type 1b) [3] = conditions: read-out: EC50 HCV replicon, Huh 7 cells; cited from earlier work
HIV-1 and HIV-2 = assay type: cell-based
[4] = test system: human and feline herpes viruses; assay: organism not typed; assay type: cell-based; conditions: read-out: EC50 against human and feline herpes viruses
[5] = test system: L1210 (mouse lymphocytic leukemia cells); assay type: cell-based; conditions: read-out: IC50 (50% inhibitory concentration), proliferation
HeLa/TK− cells = assay type: cell-based, human; conditions: read-out: IC50 (50% inhibitory concentration), proliferation
[6] = test system: Herpes simplex virus 2 (G); assay type: cell-based, herpes simplex virus type 2; conditions: read-out: EC50 Herpes simplex virus 2 (G)
[7] = test system: HeLa (human cervical carcinoma cells); assay type: cell-based; conditions: read-out: IC50 (50% inhibitory concentration), proliferation
[8] = test system: CEM (human T-lymphocyte cells); assay type: cell-based; conditions: read-out: IC50 (50% inhibitory concentration), proliferation
[9] = test system: Herpes simplex virus 1(KOS); assay type: cell-based, herpes simplex virus type 1; conditions: read-out: EC50 Herpes simplex virus 1(KOS)
[10] = test system: Herpes simplex virus 1TK−(KOS)ACVr; assay type: cell-based, herpes simplex virus type 1; conditions: read-out: EC50 Herpes simplex virus 1TK−(KOS)ACVr
HIV-2(ROD) = assay type: cell-based
HIV-1(IIIB) = assay type: cell-based
HCV replicon (type 1b) [11] = assay: HCV replicon assay; assay type: cell-based; conditions: L-alanine vs D-alanine derivative
[12] = read-out: IC50, range over cell lines
[13] = read-out: IC50, range over all tested tumor cell lines

C[C@H](NP(=O)(N[C@@H](C)C(=O)OCC(C)(C)C)OC[C@@H]1C=C[C@H](n2cnc3c(NC4CC4)nc(N)nc32)C1)C(=O)OCC(C)(C)C [Compound 35, abacavir-5′-O-bis-(2,2-dimethylpropoxy-L-alaninyl)-phosphate]
IC50 (tumor cell lines; [12]): 19 to 54 µM

C[C@H](NP(=O)(N[C@@H](C)C(=O)OCc1ccccc1)OCCOCn1cnc2c(=O)[nH]c(N)nc21)C(=O)OCc1ccccc1 [Compound 32, acyclovir-5′-O-bis[(benzoxy-L-alaninyl)]-phosphate]
EC50 (Feline herpes virus): > 100 µM | MCC (cytotoxicity) [1]: >100 µM | time to full conversion into metabolite (carboxypeptidase Y): 7.5 h | boost in activity compared to ACV, HIV-1 (HIV-1 (X4LAI.04)): > 60 fold | EC50 (HIV-1 (X4LAI.04); Human immunodeficiency virus 1, MT4, 72 h, read-out: EC50 HIV-1): 2 to 4 µM

C[C@H](NP(=O)(N[C@@H](C)C(=O)OCc1ccccc1)OC[C@H]1O[C@@H](n2ccc(N)nc2=O)CS1)C(=O)OCc1ccccc1 [Compound 25, 3TC-5′-O-bis(benzoxy-L-alaninyl)-phosphate]
IC50 (tumor cell lines; [13]): 38 to 116 µM

C[C@H](NP(=O)(N[C@@H](C)C(=O)OCc1ccccc1)OC[C@H]1O[C@@H](n2cnc(C(N)=O)n2)[C@H](O)[C@@H]1O)C(=O)OCc1ccccc1 [Compound 30, ribavirin-5′-O-bis(benzoxy-L-alaninyl)-phoshate]
CC50 [2]: > 100 µM

NC(=O)c1ncn([C@@H]2O[C@H](CO)[C@@H](O)[C@H]2O)n1 [Compound 9, ribavirin]
CC50 (Huh 7 cells): > 100 µM | EC50 (HCV replicon (type 1b) [3]): 87 µM

[N-]=[N+]=N[C@]1(CO)O[C@@H](n2ccc(=O)[nH]c2=O)[C@H](O)[C@@H]1O [Compound 7, 4′-azidouridine]
CC50 (Huh 7 cells): > 100 µM | EC50 (HCV replicon (type 1b) [3]): > 100 µM

C[C@H](NP(=O)(N[C@@H](C)C(=O)OCc1ccccc1)OC[C@@H]1C=C[C@H](n2cnc3c(NC4CC4)nc(N)nc32)C1)C(=O)OCc1ccccc1 [Compound 34, abacavir-5′-O-bis(benzoxy-L-alaninyl)-phosphate]
IC50 (tumor cell lines; [12]): 19 to 54 µM

COC(=O)[C@H](C)NP(=O)(N[C@@H](C)C(=O)OC)OC[C@H]1O[C@@H](n2cnc(C(N)=O)c2N)[C@H](O)[C@@H]1O [Compound 39, acadesine-5′-O-bis(methoxy-L-alaninyl)-phosphate]
EC50 (Feline herpes virus): > 100 µM | MCC (cytotoxicity) [1]: >100 µM

Nc1nc2c(ncn2COCCO)c(=O)[nH]1 [Compound 10, acyclovir, reference compound]
EC50 (Feline herpes virus): > 100 µM | CC50 (Huh 7 cells): > 30 µM | MCC (cytotoxicity) [1]: >100 µM | EC50 (HCV replicon (type 1b) [3]): 30 µM

C[C@H](NP(=O)(N[C@@H](C)C(=O)OCc1ccccc1)OC[C@H]1O[C@@H](n2cnc(C(N)=O)c2N)[C@H](O)[C@@H]1O)C(=O)OCc1ccccc1 [Compound 38, acadesine-5′-O-bis(benzoxy-L-alaninyl)-phosphate]
EC50 (Feline herpes virus): > 100 µM | MCC (cytotoxicity) [1]: >100 µM

Cc1cn([C@H]2C[C@H](N=[N+]=[N-])[C@@H](COP(=O)(N[C@@H](C)C(=O)OCc3ccccc3)N[C@@H](C)C(=O)OCc3ccccc3)O2)c(=O)[nH]c1=O [Compound 20, 3′-azido-3′-deoxythymidine-5′-O-bis(benzoxy-L-alaninyl)-phosphate]
anti-HIV activity compared to the parent (HIV-1 and HIV-2): equipotent to the parent

Nc1ccn([C@@H]2CS[C@H](CO)O2)c(=O)n1 [Compound 5, lamivudine, reference compound]
IC50 (tumor cell lines; [13]): > 250 µM

[N-]=[N+]=N[C@]1(CO)O[C@@H](n2ccc(N)nc2=O)[C@H](O)[C@@H]1O [Compound 8, 4′-azidocytidine]
CC50 (Huh 7 cells): > 100 µM | EC50 (HCV replicon (type 1b) [3]): 7.13 µM

NC(=O)c1ncn([C@@H]2O[C@H](CO)[C@@H](O)[C@H]2O)c1N [Compound 13, acadesine, reference compound]
EC50 (Feline herpes virus): > 100 µM | MCC (cytotoxicity) [1]: >100 µM | EC50 [4]: > 100 µM

acadesine-5′-O-bis(2,2-dimethylpentoxy-L-alaninyl)-phosphate [Compound 40]
EC50 (Feline herpes virus): > 100 µM | MCC (cytotoxicity) [1]: >100 µM | IC50 [5]: > 250 µM | IC50 (HeLa/TK− cells): > 250 µM | EC50 [6]: > 100 µM | IC50 [7]: > 250 µM | IC50 [8]: > 250 µM | EC50 [9]: > 100 µM | EC50 [10]: > 100 µM

C[C@H](NP(=O)(N[C@@H](C)C(=O)OCC(C)(C)C)OCCOCn1cnc2c(=O)[nH]c(N)nc21)C(=O)OCC(C)(C)C [Compound 33, acyclovir-5′-O-bis[(2,2-dimethylpropoxy-L-alaninyl)]-phosphate]
EC50 (Feline herpes virus): > 100 µM | MCC (cytotoxicity) [1]: >100 µM | boost in activity compared to ACV, HIV-1 (HIV-1 (X4LAI.04)): > 60 fold

C[C@H](NP(=O)(N[C@@H](C)C(=O)OCC(C)(C)C)OC[C@@H]1CC[C@H](n2cnc3c(N)ncnc32)O1)C(=O)OCC(C)(C)C [Compound 19, ddA-5′-O-bis-(2,2-dimethylpropoxy-L-alaninyl)-phosphate]
boost of activity compared to parent nucleoside, HIV-2 (HIV-2(ROD)): 57 fold | IC50 (tumor cell lines; [12]): 35 to 76 µM | boost of activity compared to parent nucleoside, HIV-1 (HIV-1(IIIB)): 72 fold

CCOc1nc(N)nc2c1ncn2[C@@H]1O[C@H](COP(=O)(N[C@@H](C)C(=O)OCC(C)(C)C)N[C@@H](C)C(=O)OCC(C)(C)C)[C@@H](O)[C@@]1(C)F [Compound 14, (2R,3R,4R,5R)-5-(2-amino-6-ethoxy-9H-purin-9-yl)-4-fluoro-2-(hydroxymethyl)-4-methyltetrahydrofuran-3-ol-5′-O-bis-(2,2-dimethylpropoxy-L-alaninyl)-phosphate]
improved anti-HCV activity compared to 15 (HCV replicon (type 1b) [11]): 4 fold

CCCCCc1ccc(-c2cc3cn([C@H]4C[C@H](O)[C@@H](COP(=O)(N[C@@H](C)C(=O)OCc5ccccc5)N[C@@H](C)C(=O)OCc5ccccc5)O4)c(=O)nc3o2)cc1 [Compound 36, 3-(2′-deoxy-β-D-ribofuranosyl)-6-(4-n-pentylphenyl)-2,3-dihydrofuro-[2,3-d]pyrimidin-2-one-5′-O-bis-(benzoxy-L-alaninyl)-phosphate]
EC50 (Feline herpes virus): > 100 µM | EC50 [4]: > 100 µM
